Experimental data from patent US11813262B2, “Compositions and methods to increase muscular strength” (priority 2017, dated 2023).

Assays:
[1] = test system: 3D engineered skeletal muscle tissue from C2Cl2 myoblasts; experiment: Contractility of 3D engineered optogenetic skeletal muscle tissue (displacement of compliant cantilever); format: cell-based, mouse; details: for effect on muscle contraction of 3D muscle: other actin disrupters
Text: An in vitro optogenetic skeletal muscle micro-tissue as a model system (e.g., engineered skeletal muscle) such as the one shown in FIG. 1A-1E was used. Briefly, a sacrificial molding technique was used to form the muscle tissue on the cantilevers. A steel rod was used to mold a cylindrical hole in solidified gelatin. The steel rod was then removed and myoblasts in an extracellular matrix material was inserted in its place. The myoblasts were then differentiated in place to form a differentiated muscle tissue. With this system, a range of actin inhibitors were tested (e.g., Cytochalasin D (Zygosporin A), Latrunculin A, SMIFH2, CK666 and Jasplakinode) including ones that bind to the barbed end of F-actin, ones that sequester G-actin monomers and inhibitors of formins, roughly a 100% increase in muscle strength was observed (FIGS. 2A-2B and FIGS. 3A-3B) and a 300% increase in external work performed was observed, within 2 hours of F-actin disruption. Additionally, disruption of the dynamic F-actin cytoskeleton using small molecule actin dynamics inhibitors led to a persistent 2-fold improvement in force (e.g., muscle performance or work) compared to exercising (FIG. 4A-4E). Actin disruption improved mouse muscle explant force, a model system that is very close to human muscle (FIG. 5A-5C).
(§1) Fabrication of a 3D engineered skeletal muscle tissue by differentiating C2Cl2 myoblasts mixed in a fibrin/matrigel extracellular matrix cast in to a muscle-like cylindrical shape using a sacrificial molding technique. The muscle tissue is anchored to a stiff cantilever and a more compliant cantilever. Optogenetic stimulation of the muscle tissue lead to muscle contraction which was quantified through measurable displacements of the compliant cantilever. ZygoA treatment of the 3D muscle tissues lead to a significant improvement in contraction relative to DMSO treated controls, reaching ˜2-fold increase in 2 hours.

[2] = test system: mouse hindlimb extensor digitorum longus (EDL) muscle explant; experiment: Contractility of mouse hindlimb EDL muscle explant on cantilevers under electrical stimulation
Text: The hindlimb extensor digitorum longus (EDL) muscle of a euthanized 2-3 month old male mouse was dissected. The EDL muscle was anchored between two kapton cantilevers using a cyanoacrylate glue. One of the cantilevers was movable whose position could be adjusted to change the resting tension of the muscle. The cantilever was moved to the point where maximal force was produced and was held at this point for the rest of the experiment. (FIG. 7A-7B).
The two colored envelopes around the curves representing the mean are the 68% and 95% confidence interval envelopes (FIG. 7D). ZygoA treated tissues that responded the best, with an average of ˜2× transient increase in contraction after treatment, followed by decline (FIG. 7E). […] Modeling the decline associated with rigor mortis as an exponential decay estimated the “true” strength change after treatment. The muscle strength was compared of tissue after treatment extrapolated to time t=0 and represent this as a strength ratio relative to the actual strength at t=0. ZygoA treated tissues show a ˜2.5-fold increase in median strength ratio relative to DMSO treated controls.

[3] = test system: F-actin; experiment: Phalloidin stain of F-actin in mouse EDL muscle explants; details: 3 uM, 2 hours of treatment, vs DMSO
[4] = test system: differentiated C2Cl2 myotubes; experiment: Active contraction of differentiated optogenetic C2Cl2 myotubes (Index of Movement); format: cell-based, mouse
Text: as §1

[5] = test system: F-actin; experiment: Live confocal time-lapse microscopy of Sir-Actin stained myotubes; format: cell-based; details: 0.3 uM
Experimental: However, some of the background non-sarcomeric F-actin was depolymerized as also quantified in (FIG. 10D). Myotubes with an immature sarcomeric structure were depolymerized ˜5 hours after ZygoA treatment (FIG. 10C). Poorly differentiated, myotubes without visible sarcomeric structures had rupturing F-actin cables and significant actin upon actin disruption with ZygoA. […] Sir-Actin intensity before and 12 hours after treatment along sarcomeric F-actin in mature myotubes (FIG. 10D-10E).

[6] = test system: F-actin; experiment: Fluorescence recovery after photobleaching of GFP-tagged G-actin in C2Cl2 myotubes; format: cell-based, mouse
Text: The fluorescence recovery in differentiated myotubes was affected by 3 different events: diffusion, dynamic F-actin turnover and stable F-actin turnover. DMSO treated tissues recovered faster than ZygoA treated tissues. […] These myotubes were excluded from the computation. Fluorescence recovery at different timescales (seconds, minutes, tens of minutes) reflected different molecular processes (diffusion of monomer, dynamic F-actin turnover, stable F-actin turnover). […] Changes in dynamic and stable F-actin fractions were statistically significant (FIG. 11D-11E).

[7] = poorly differentiated myotubes without visible sarcomeric structures

Compound: C/C1=C\[C@H](C)C[C@H](C)OC(=O)C[C@H](c2ccc(O)cc2)NC(=O)[C@@H](Cc2c(Br)[nH]c3ccccc23)N(C)C(=O)[C@H](C)NC(=O)[C@@H](C)C1 [jasplakinolide]
- active contractility after F-actin stabilization [1]: gradual decrease in active contractility

Compound: C/C1=C/C(=O)O[C@@H]2C[C@@H](CC[C@H](C)/C=C\C=C\CC1)O[C@@](O)([C@@H]1CSC(=O)N1)C2 [Latrunculin A]
- effect on muscle contraction of 3D muscle [1]: improved muscle contraction

Compound: O=C1NC(=S)N(c2cccc(Br)c2)C(=O)C1=Cc1ccco1 [SMIFH2, 1-(3-Bromophenyl)-5-(2-furylmethylene)-2-thioxo-hexahydropyrimidine-4,6-dione]
- effect on muscle contraction of 3D muscle [1]: improved muscle contraction

Compound: C=C1[C@@H](C)[C@H]2[C@H](Cc3ccccc3)NC(=O)[C@]23[C@H](OC(C)=O)/C=C/[C@@](C)(O)C(=O)[C@@H](C)C/C=C/[C@H]3[C@@H]1O [ZygoA, Zygosporin A]
- transient increase in contraction after treatment ([2]; ZygoA treated tissues that responded the best, average, treatment at t=60 mins): ~2 ×
- increase in median strength ratio relative to DMSO treated controls ([2]; strength after treatment extrapolated to t=0 (exponential decay model of rigor mortis) relative to actual strength at t=0): ~2.5 fold
- contractility changes of treated tissues vs DMSO ([2]; treatment at t=60 mins, before rigor mortis decline): transient improvement
- F-actin disruption in muscle explants (phalloidin stain) [3]: disrupted F-actin
- longer term effect on active contraction ([1]; 0.3 μM, long term (1 day)): no significant effect
- muscle contraction after pulsed treatment compared to DMSO treated controls ([1]; 3 uM for 2 hours followed by washout, days after washout): sustained improvement in muscle contraction
- short term increase in force (active contraction) ([1]; 3 μM, 2 hours of exposure): 2.6 ×
- decrease in contraction compared to the peak achieved 2 hours after exposure ([1]; 3 μM, longer term (1 day)): ~50%
- increase in contraction relative to DMSO treated controls ([1]; 3D muscle tissues, in 2 hours): ~2 fold
- effect of washout on contraction ([1]; washout of high dose 3 uM): recovery of the force to the level of the peak
- effect of washout on contraction ([1]; washout of low dose 0.3 uM): slight decrease in contraction (not significant)
- active contraction (Index of Movement, active contractile displacement) [4]: significant improvement in active contraction
- time to depolymerization of myotubes with immature sarcomeric structure [5]: ~5 h
- sarcomeric F-actin structure in mature myotubes after treatment ([5]; 12 hours after treatment, mature sarcomeric structure): still displayed the periodic sarcomeric structure
- average F-actin filament length [5, 7]: decrease in the average F-actin filament length
- number of F-actin filaments [5, 7]: increase in number of F-actin filaments
- actin turnover time ([6]; FRAP, vs DMSO): slowed the actin turnover time in a dose-dependent manner
- amount of stable F-actin ([6]; higher dose 3 uM): reduces the amount of stable F-actin
- amount of dynamic F-actin ([6]; low dose 0.3 uM): reduced the amount of dynamic F-actin
